Measurements taken from PMC8544188 (Molecular Diversity, 2021).
Entries after “also recorded” stand apart in the source; their conditions may differ. One block for each compound: values may come before it.

How the values were obtained:
α-glucosidase [1] = target: T1, α-glucosidase (Saccharomyces cerevisiae, UniProt P53341); assay: α-glucosidase inhibition assay; assay type: biochemical
α-glucosidase [2] = target: T1, α-glucosidase; assay: Enzyme kinetic studies; assay type: biochemical; details: Lineweaver–Burk plot: Km increased, Vmax unchanged

T1 sequence (P53341 whole entry): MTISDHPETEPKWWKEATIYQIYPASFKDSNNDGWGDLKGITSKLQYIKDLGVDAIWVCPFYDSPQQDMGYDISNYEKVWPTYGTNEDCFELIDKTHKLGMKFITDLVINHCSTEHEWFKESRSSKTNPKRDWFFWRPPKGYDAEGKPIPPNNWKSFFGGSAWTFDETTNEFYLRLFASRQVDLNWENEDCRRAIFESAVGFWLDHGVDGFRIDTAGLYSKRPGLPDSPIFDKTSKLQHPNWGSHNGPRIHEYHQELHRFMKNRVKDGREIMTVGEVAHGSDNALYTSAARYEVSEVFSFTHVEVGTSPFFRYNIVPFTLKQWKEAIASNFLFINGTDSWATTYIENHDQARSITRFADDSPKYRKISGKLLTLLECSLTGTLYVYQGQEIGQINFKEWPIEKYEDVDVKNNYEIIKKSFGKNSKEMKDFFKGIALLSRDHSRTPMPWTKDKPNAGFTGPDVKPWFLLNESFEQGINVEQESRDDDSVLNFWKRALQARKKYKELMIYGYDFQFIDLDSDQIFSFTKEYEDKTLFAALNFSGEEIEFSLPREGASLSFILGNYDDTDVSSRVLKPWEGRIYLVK

fold improvement in inhibitory potency compared to acarbose (positive control) (α-glucosidase [1]; ratio of IC50 values versus acarbose): around fivefold
Structure (SMILES): N#CC(C(N)=O)c1c(-c2ccccc2)[nH]c2c1c(=O)oc1ccccc12 (stereo not shown) [4a, 2-cyano-2-(4-oxo-2-phenyl-1,4-dihydrochromeno[4,3-b]pyrrol-3-yl)acetamide]

Structure (SMILES): N#CCc1c(-c2ccccc2)[nH]c2c1c(=O)oc1ccc(Cl)cc12 [5b, 2-(8-chloro-4-oxo-2-phenyl-1,4-dihydrochromeno[4,3-b]pyrrol-3-yl)acetonitrile]
α-glucosidase inhibitory activity in words (α-glucosidase [1]): diminished the inhibitory activity completely

fold increase in potency compared to 5a (α-glucosidase [1]; ratio of IC50 values versus 5a): around fivefold
Structure (SMILES): N#CCc1c(-c2ccc(Cl)cc2)[nH]c2c1c(=O)oc1ccccc12 [5d, 2-(2-(4-chlorophenyl)-4-oxo-1,4-dihydrochromeno[4,3-b]pyrrol-3-yl)acetonitrile]

Structure (SMILES): COc1ccc(-c2[nH]c3c(c2CC#N)c(=O)oc2ccccc23)cc1 [5e, 2-(2-(4-methoxyphenyl)-4-oxo-1,4-dihydrochromeno[4,3-b]pyrrol-3-yl)acetonitrile]
mode of inhibition (α-glucosidase [2]): competitive inhibition; also recorded: competitive inhibitor
